Experimental findings from patent publication US8796320B2, “1,3,4-Oxadiazole-2-carboxamide compound” (General Incorporated Association Pharma Valley Project …, priority 2009, dated 2014) are described below.

What is called IC50 is the concentration needed to halve the response being measured. Low values mean higher potency, high ones lower potency.

Type in all cases: cell-based
One assay relates to STAT3. Kind of assay: STAT3 transcription inhibition test (reporter gene method). Conditions: Homo sapiens; compound at 100 μM; STAT3 reporter HeLa stable cell line, oncostatin M 10 ng/mL, 4 hours; read-out: STAT3 transcription inhibitory activity (%). The method, then:
The inhibition of STAT3 transcription was evaluated by using STAT3 reporter HeLa stable cell line (Panomics Inc., catalog No. RC0003), a cell line for the reporter gene method, and performing the following method according to the appendix included therein.
STAT3, reporter HeLa stable cell line subcultured and maintained in a Dulbecco's modified Eagle's medium (DMEM) containing 10% fetal bovine serum, 100 units/mL penicillin, and 100 μg/mL streptomycin was inoculated at a concentration of 40000 cells/well to a 96-well plate (white) and attached to the plate by overnight incubation at 37° C. under 5% CO2. After addition of each evaluation compound adjusted to various concentrations (adjusted with a DMSO solution), the cells were precultured for 1 hour. Then, oncostatin M for activating STAT3 was added at a final concentration 10 ng/mL, and the cells were further cultured at 37° C. under 5% CO2 for 4 hours. Luciferase activity derived from the cells was determined using Steady-Glo Luciferase Assay System (Promega Corp.), and STAT3 transcriptional activity scores were calculated according to the following formula: STAT3 transcriptional activity score (%)=100×(Lchem−L0)/(LDMSO−L0) • L0: luminescence intensity obtained without stimulation with oncostatin M • Lchem: luminescence intensity obtained by the addition of a test sample • LDMSO: luminescence intensity obtained by the addition of only a solvent for dissolving a test sample
The test results were indicated in the rate of inhibition of STAT3 transcription by each compound at a concentration of 100 μM.
A general note: A reporter such as luciferase makes a cellular process visible.

For assay [1], the system named is Human lymphoma SCC-3 cells. Kind of assay: SCC-3 cell growth inhibition test (MTT method). Conditions: 72-hour culture. On the procedure:
Human lymphoma SCC-3 cells purchased from Japan Health Sciences Foundation were cultured for […] at a density of 5000 cells/well in a 96-well plate with RPMI1640 (Sigma-Aldrich Corp.) containing 10% fetal bovine serum (FBS; GIBCO) as a culture medium.
Simultaneously with cell inoculation, each test compound diluted to various concentrations with an RPMI medium was added to each well. After 72-hour culture, cell growth inhibitory activity was determined by the MTT method (J. Immunol. Methods, 1993, 65, 581-593) using a microplate reader (NJ-2300, BioTek Instruments, Inc.).
The test results were indicated in a concentration (IC50) at which 50% cell growth was inhibited.
Background: Formazan colour is commonly taken as a measure of viable cells.

The subject of another assay is MDA-MB-468. In words: MDA-MB-468 cell growth inhibitory activity. Conditions: Homo sapiens; compound at 20 μM; MDA-MB-468, 72 hours. The method, then: MDA-MB-468 diluted with phenol red-free DMEM/F-12 (GIBCO; 10% FBS, 20 units/ml penicillin/streptomycin) was inoculated at a concentration of 2000 cells/well to a 96-well plate (Greiner Bio-One) and cultured overnight at 37° C. in the presence of 5% CO2. Then, a test sample solution (containing 2 (v/v)% DMSO) adjusted to 10 μM was added thereto at a concentration of 10 μL/well and contacted with the cells at 37° C. for 72 hours in the presence of 5% CO2. Each well was washed three times with a medium. Then, after addition of 100 μL/well of a medium and 20 μL/well of CellTiter 96 AQueous, One Solution Reagent (Promega Corp.), the cells were incubated at 37° C. for 2 hours in the presence of 5% CO2. Absorbance at 495 nm was measured using Multiplate reader (Molecular Devices, Inc.), and the rate of inhibition of cell growth was calculated according to the following formula: Rate of inhibition of cell growth (%)=100−100×(Abschem−bkgd)/(AbsDMSO−bkgd) • Abschem: absorbance obtained by the addition of a test sample • AbsDMSO: absorbance obtained by the addition of only a solvent for test sample dissolution • bkgd: absorbance obtained by the addition of CellTiter 96 AQueous One Solution Reagent to a medium for cell culture
The test results were indicated in the rate of inhibition of cell growth by each compound at a concentration of 20 μM.

Molecules are shown by their SMILES. Structures can show the parent of a compound that is named as a salt.

For the molecule `O=C(Nc1nnc(-c2ccco2)o1)c1cccc(-c2ccc(Cl)cc2)c1` [Compound Ia-11, 4′-Chloro-N-[5-(2-furyl)-1,3,4-oxadiazol-2-yl]-3-biphenylcarboxamide], the inhibition at 100 µM in the assay on STAT3 stood at 67%. Moreover, in assay [1], the IC50 worked out at 1800 nM.

`C=Cc1ccc(-c2cccc(C(=O)Nc3nnc(-c4ccco4)o3)c2)cc1` [Compound Ia-13, N-[5-(2-Furyl)-1,3,4-oxadiazol-2-yl]-4′-vinyl-3-biphenylcarboxamide]: the inhibition at 100 µM in the assay with STAT3 was determined as 67%. The molecule further returned an IC50 in assay [1] of 1000 nM.

Take `O=Cc1ccc(-c2cccc(C(=O)Nc3nnc(-c4ccco4)o3)c2)cc1` [Compound Ia-17, 4′-Formyl-N-[5-(2-furyl)-1,3,4-oxadiazol-2-yl]-3-biphenylcarboxamide]: in the assay on STAT3, the inhibition at 100 µM is more than 100%. The inhibition at 20 µM in the assay on MDA-MB-468 turned out to be 54%. This molecule also came in with a concentration for half-maximal inhibition (IC50) in assay [1] of 4000 nM.

Turning to `CC(=O)c1ccc(-c2cccc(C(=O)Nc3nnc(-c4ccco4)o3)c2)cc1` [Compound Ia-18, 4′-Acetyl-N-[5-(2-furyl)-1,3,4-oxadiazol-2-yl]-3-biphenylcarboxamide], in the assay on STAT3, the inhibition at 100 µM turned out to be 71%. In assay [1], the IC50 amounted to 1900 nM.

On to `N#Cc1ccc(-c2cccc(C(=O)Nc3nnc(-c4ccco4)o3)c2)cc1` [Compound Ia-21, 4′-Cyano-N-[5-(2-furyl)-1,3,4-oxadiazol-2-yl]-3-biphenylcarboxamide], for which, in the assay on STAT3, the inhibition at 100 µM amounted to 62%. In the assay on MDA-MB-468, the inhibition at 20 µM was determined as 91%. Also, in assay [1], the midpoint of inhibition, the IC50, lay at 1700 nM.

For the molecule `NS(=O)(=O)c1ccc(-c2cccc(C(=O)Nc3nnc(-c4ccco4)o3)c2)cc1` [Compound Ia-25, N-[5-(2-Furyl)-1,3,4-oxadiazol-2-yl]-4′-sulfamoyl-3-biphenylcarboxamide], the inhibition at 100 µM in the assay on STAT3 stood at 70%. In addition, half-maximal inhibition in assay [1] (IC50) was put at 53000 nM.

For the molecule `Cn1ccc2ccc(-c3cccc(C(=O)Nc4nnc(-c5ccco5)o4)c3)cc21` [Compound Ia-43, N-[5-(2-Furyl)-1,3,4-oxadiazol-2-yl]-3-(1-methyl-6-indolyl)benzenecarboxamide], in the assay on STAT3, the inhibition at 100 µM came to 74%. In assay [1], this molecule registered an IC50 of 1800 nM.

Regarding `CN1CCc2cc(-c3cccc(C(=O)Nc4nnc(-c5ccco5)o4)c3)ccc21` [Compound Ia-44, N-[5-(2-Furyl)-1,3,4-oxadiazol-2-yl]-3-(1-methyl-5-indolinyl)benzenecarboxamide], the inhibition at 100 µM in the assay with STAT3 worked out at 58%. In assay [1], this molecule displayed an IC50 of 1800 nM.

Regarding `Cn1ccc2cc(-c3cccc(C(=O)Nc4nnc(-c5ccco5)o4)c3)ccc21` [Compound Ia-50, N-[5-(2-Furyl)-1,3,4-oxadiazol-2-yl]-3-(1-methyl-5-indolyl)benzenecarboxamide], the inhibition at 100 µM with STAT3 is more than 100%. This molecule returned an inhibition at 20 µM with MDA-MB-468 of 51%. For the same molecule, half-maximal inhibition in assay [1] (IC50) required 1100 nM.

On to `O=C(Nc1nnc(-c2ccco2)o1)c1cccc(-c2ccc(-c3ccccc3)c(F)c2)c1` [Compound Ia-76, 3′-Fluoro-N-[5-(2-furyl)-1,3,4-oxadiazol-2-yl]-3-(p-terphenyl)carboxamide], for which the inhibition at 100 µM with STAT3 was 69%. In the assay with MDA-MB-468, this molecule showed an inhibition at 20 µM of 72%. This molecule had an IC50 in assay [1] of 200 nM.

For `CCc1ccc(-c2ccc(-c3cccc(C(=O)Nc4nnc(-c5ccco5)o4)c3)cc2)cc1` [Compound Ia-78, 4″-Ethyl-N-[5-(2-Furyl)-1,3,4-oxadiazol-2-yl]-3-(p-terphenyl)carboxamide], the inhibition at 100 µM with STAT3 amounted to 70%. The same molecule came in with an inhibition at 20 µM with MDA-MB-468 of 64%. The same molecule yielded an IC50 in assay [1] of less than 100 nM.

As for `O=C(Nc1nnc(-c2ccco2)o1)c1cccc(-c2ccc(-c3ccc4ccccc4c3)cc2)c1` [Compound Ia-83, N-[5-(2-Furyl)-1,3,4-oxadiazol-2-yl]-4′-(2-naphthyl)-3-biphenylcarboxamide], the inhibition at 100 µM in the assay on STAT3 came out at 75%. The molecule also yielded an inhibition at 20 µM in the assay on MDA-MB-468 of 71%. In assay [1], this molecule registered an IC50 of less than 100 nM.

On to `O=C(Nc1nnc(-c2ccco2)o1)c1cccc(-c2ccc(N3CCOCC3)cc2)c1` [Compound Ia-87, N-[5-(2-Furyl)-1,3,4-oxadiazol-2-yl]-4′-morpholino-3-biphenylcarboxamide formate], for which the inhibition at 100 µM in the assay with STAT3 was determined as 92%. In assay [1], this molecule registered an IC50 of 600 nM.

With `O=C(Nc1nnc(-c2ccco2)o1)c1cccc(-c2cnc3ccccc3c2)c1` [Compound Ia-99, N-[5-(2-Furyl)-1,3,4-oxadiazol-2-yl]-3-(3-quinolyl)benzenecarboxamide], in the assay with STAT3, the inhibition at 100 µM amounted to 78%. Moreover, in the assay with MDA-MB-468, the inhibition at 20 µM was 55%.

Turning to `O=C(Nc1nnc(-c2ccco2)o1)c1cc(-c2cccc(Cl)c2)nc2nc(N3CCCCC3)sc12` [Compound Ib-2, 5-(3-Chlorophenyl)-N-[5-(2-furyl)-1,3,4-oxadiazol-2-yl]-2-piperidino-7-thiazolo[4,5-b]pyridinecarboxamide], the inhibition at 100 µM in the assay on STAT3 is 68%. In the assay on MDA-MB-468, this molecule yielded an inhibition at 20 µM of more than 100%.

With `Cc1ccc(-c2cc(C(=O)Nc3nnc(-c4ccco4)o3)c3sc(N4CCCCC4)nc3n2)cc1` [Compound Ib-3, N-[5-(2-Furyl)-1,3,4-oxadiazol-2-yl]-5-(4-methylphenyl)-2-piperidino-7-thiazolo[4,5-b]pyridinecarboxamide], the inhibition at 100 µM in the assay on STAT3 is more than 100%. In the assay with MDA-MB-468, this molecule showed an inhibition at 20 µM of more than 100%.

As for `O=C(Nc1nnc(-c2ccsc2)o1)c1cc(-c2ccccc2)nc2nc(N3CCCCC3)sc12` [Compound Ib-19, 5-Phenyl-2-piperidino-N-[5-(3-thienyl)-1,3,4-oxadiazol-2-yl]-7-thiazolo[4,5-b]pyridinecarboxamide], the inhibition at 100 µM in the assay on STAT3 was found to be 90%. In addition, the inhibition at 20 µM in the assay with MDA-MB-468 amounted to 83%.

Turning to `O=C(Nc1nnc(-c2ccco2)o1)c1cc(-c2cccs2)nc2nc(N3CCCC3)sc12` [Compound Ib-26, N-[5-(2-Furyl)-1,3,4-oxadiazol-2-yl]-2-(1-pyrrolidinyl)-5-(2-thienyl)-7-thiazolo[4,5-b]pyridinecarboxamide], the inhibition at 100 µM in the assay with STAT3 stood at 60%. Moreover, in the assay with MDA-MB-468, the inhibition at 20 µM was 76%.

As for `O=C(Nc1nnc(-c2ccco2)o1)c1cc(-c2cccs2)nc2nc(N3CCCCC3)sc12` [Compound Ib-27, N-[5-(2-Furyl)-1,3,4-oxadiazol-2-yl]-2-piperidino-5-(2-thienyl)-7-thiazolo[4,5-b]pyridinecarboxamide], the inhibition at 100 µM in the assay on STAT3 came out at 67%. In the assay with MDA-MB-468, the inhibition at 20 µM stood at 82%.

Take `O=C(Nc1nnc(-c2ccco2)o1)c1cc(-c2ccccc2)nc2nc(N3CCSCC3)sc12` [Compound Ib-30, N-[5-(2-Furyl)-1,3,4-oxadiazol-2-yl]-5-phenyl-2-(4-thiomorpholinyl)-7-thiazolo[4,5-b]pyridinecarboxamide]: the inhibition at 100 µM in the assay on STAT3 was more than 100%. Also, the inhibition at 20 µM in the assay with MDA-MB-468 worked out at 84%.

For the molecule `O=C(Nc1nnc(-c2ccco2)o1)c1cc(-c2ccccc2)nc2nc(N3CCC(F)(F)CC3)sc12` [Compound Ib-32, 2-(4,4-Difluoropiperidino)-N-[5-(2-furyl)-1,3,4-oxadiazol-2-yl]-5-phenyl-7-thiazolo[4,5-b]pyridinecarboxamide], in the assay with STAT3, the inhibition at 100 µM came out at 80%. In the assay with MDA-MB-468, this molecule displayed an inhibition at 20 µM of 86%.

Turning to `COc1cc([N+](=O)[O-])ccc1-c1ccc(C(=O)Nc2nnc(-c3ccco3)o2)o1` [Compound Ic-18, N-[5-(2-Furyl)-1,3,4-oxadiazol-2-yl]-5-(2-methoxy-4-nitrophenyl)-2-furancarboxamide], the inhibition at 20 µM in the assay with MDA-MB-468 is 76%. Besides, 16000 nM corresponded to half-maximal inhibition in assay [1] (IC50).
